Measured values as given in PubChem BioAssay (NCI).
“And” between values parts separate entries of the source, which are not always exact repeats. Equal values may be shown once.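 Interpolation was linear, between the two tested concentrations surrounding the appropriate level; five concentrations were tested over 48 hours in 96-well plates. The concentration for 50% growth inhibition is given as GI50. The concentration for full growth arrest is given as TGI.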

Experiments:
Assay in all cases: NCI tumour cell line growth inhibition, 48 h
NCI-H522 lung = tested on: NCI-H522 lung
786-0 renal = tested on: 786-0 renal
OVCAR-4 ovarian = tested on: OVCAR-4 ovarian
UACC-257 melanoma = tested on: UACC-257 melanoma
MCF7 breast = tested on: MCF7 breast
LOX IMVI melanoma = tested on: LOX IMVI melanoma
U251 CNS = tested on: U251 CNS
OVCAR-3 ovarian = tested on: OVCAR-3 ovarian
HOP-62 NSCLC = tested on: HOP-62 NSCLC
K-562 leukemia = tested on: K-562 leukemia

Row | Compound | GI50 (NCI-H522 lung) | TGI (NCI-H522 lung) | GI50 (786-0 renal) | TGI (786-0 renal) | GI50 (OVCAR-4 ovarian) | TGI (OVCAR-4 ovarian) | GI50 (UACC-257 melanoma) | TGI (UACC-257 melanoma) | GI50 (MCF7 breast) | TGI (MCF7 breast) | GI50 (LOX IMVI melanoma) | TGI (LOX IMVI melanoma) | GI50 (U251 CNS) | TGI (U251 CNS) | GI50 (OVCAR-3 ovarian) | TGI (OVCAR-3 ovarian) | GI50 (HOP-62 NSCLC) | TGI (HOP-62 NSCLC) | GI50 (K-562 leukemia) | TGI (K-562 leukemia) [µM]
1 | CC12CC=CCC1CCC1C2CCC2(C)C(c3ccc(=O)oc3)CCC12O (stereo not drawn) | 0.0383 µM | 0.273 µM | 0.0387 µM | 0.209 µM | 0.197 µM | 0.641 µM | 0.246 µM | 0.769 µM | 0.0794 µM | 0.961 µM | 0.0562 µM | 0.213 µM | 0.127 µM | 0.337 µM | 0.0566 µM | 0.282 µM | 0.0459 µM | 0.201 µM | 0.0967 µM | 2.27
2 | Cn1cc(C2=C(c3cn(C)c4cc(N)ccc34)C(=O)NC2=O)c2ccccc21 | 1.36 µM | 8.53 µM | 3.42 µM | > 25 µM | 4.41 µM | 17.4 µM | 5.89 µM | 18.1 µM | 0.696 µM | > 16.8 µM | 3.1 µM | > 25 µM | 1.41 µM | 10.2 µM | 0.721 µM | > 12.2 µM | 3.86 µM | > 25 µM | 0.396 µM | > 23.8
3 | CC(=O)c1cc(-c2ccccc2N)n(-c2ccc3c(c2)OCO3)c1C | 0.139 µM | 5.49 µM | 0.388 µM | > 100 µM | 0.924 µM | > 100 µM | 27.3 µM | > 100 µM | 0.32 µM | > 100 µM | 0.297 µM | > 100 µM | 0.277 µM | > 100 µM | 0.066 µM | 0.537 µM | 0.435 µM | > 100 µM | 0.247 µM | > 100
4 | Clc1ccc2c(c1)C(N1CCNCC1)=Nc1ccccc1O2 | 1.82 µM | 3.87 µM | 1.49 µM | 3.27 µM | 2.45 µM | 8.72 µM | 1.5 µM | 2.87 µM | 1.62 µM | 3.05 µM | 1.54 µM | 2.87 µM | 1.51 µM | 2.99 µM | 2.8 µM | 10.4 µM | 2.01 µM | 4.66 µM |  | 
5 | CC(C)(C)n1cc(-c2ccnc(NCCCNS(=O)(=O)c3ccc(Br)cc3)c2)c(-c2cccc(O)c2)n1 | 2.13 µM | 4.55 µM | 1.66 µM | 3.16 µM | 1.91 µM | 3.91 µM | 2.01 µM | 4.33 µM | 1.88 µM | 3.98 µM | 1.77 µM | 3.2 µM | 1.65 µM | 3.66 µM | 2.15 µM | 4.15 µM | 2.05 µM | 4.2 µM | 2.02 µM | > 100
6 | Cc1cc(=O)oc2cc(OC(=O)N(CCCl)CCCl)ccc12 |  | > 100 µM |  | > 100 µM |  | > 100 µM |  | > 100 µM |  | > 100 µM |  | > 100 µM |  | > 100 µM |  | > 100 µM |  | > 100 µM |  | > 100
7 | O=C(Nc1ccc(Br)cc1)Nc1nn(C(=O)Nc2ccc(Br)cc2)c2ccccc12 | 31 µM | > 100 µM | 34.3 µM | > 100 µM | 22.6 µM | > 66.8 µM | > 77.6 µM | > 100 µM | 29.1 µM | > 100 µM | 64.4 µM | > 100 µM | 13.4 µM | 43.6 µM | 33.9 µM | > 77.6 µM | 26.4 µM | > 72.8 µM | 7.64 µM | > 35.6
8 | Clc1ccc2ns[s+]c2c1 |  | > 100 µM |  | > 100 µM |  | > 100 µM |  | > 100 µM |  | > 100 µM |  | > 84 µM |  | > 100 µM |  | > 100 µM |  | > 29.9 µM |  | > 100
9 | NNS(=O)(=O)c1cc(C(=O)O)cc(C(=O)O)c1 |  | > 100 µM |  | > 100 µM |  | > 100 µM |  | > 100 µM |  | > 100 µM |  | > 100 µM |  | > 100 µM |  | > 100 µM |  | > 100 µM |  | > 100
10 | COC(=O)[C@H]1[C@H]2C[C@@H]3c4[nH]c5cc(OC)ccc5c4CCN3C[C@H]2C[C@@H](OC(=O)/C=C/c2cc(OC)c(OC)c(OC)c2)[C@@H]1OC | 10.4 µM | 27 µM | 9.86 µM | 26.3 µM | 3.39 µM | 11.2 µM | 18.4 µM | 68.1 µM | 4.75 µM | 23 µM | 3.31 µM | 13.1 µM | 3.58 µM | 14.6 µM | 2.62 µM | 6.2 µM | 5.99 µM | 25.5 µM | 3.24 µM | 38.4
11 | Cc1cnc(Nc2ccc(OCCN3CCCC3)cc2)nc1Nc1cccc(S(=O)(=O)NC(C)(C)C)c1 | 0.053 µM and 0.371 µM | 1.35 µM and 3.15 µM | 0.197 µM and 1.01 µM | 3.95 µM and 2.86 µM | 0.671 µM and 0.967 µM | 21.3 µM and > 10 µM | 1.28 µM and 3.99 µM | 2.83 µM and > 10 µM | 0.143 µM and 0.775 µM | 9.16 µM and > 10 µM | 0.211 µM and 0.938 µM | 1.61 µM and 2.3 µM | 0.808 µM and 1.35 µM | 17.2 µM and > 10 µM | 0.464 µM and 1.36 µM | 14.7 µM and > 10 µM | 0.305 µM and 0.848 µM | 9.5 µM and > 8.68 µM | 0.15 µM and 0.676 µM | > 33.6
12 | [N-]=[N+]=CC(=O)COC(=O)c1ccccc1 |  | > 100 µM |  | > 100 µM |  | > 100 µM |  | > 100 µM |  | > 100 µM |  | > 100 µM |  | > 100 µM |  | > 100 µM |  | > 100 µM |  | > 100
13 | Nc1nc(N)nc(CC(=O)O)n1 |  | > 100 µM |  | > 100 µM |  | > 100 µM |  | > 100 µM |  | > 100 µM |  | > 100 µM |  | > 100 µM |  | > 100 µM |  | > 100 µM |  | > 100
14 | COc1cc2c(c(OC)c1OC)-c1ccc(O)c(=O)cc1[C@@H](NC(C)=O)CC2 | 4.64 µM | 90.8 µM and 36.4 µM | 12.3 µM | 62 µM and 92.1 µM | 3.64 µM | > 100 µM and 66.1 µM | 4.34 µM | 33.3 µM and 77.1 µM | 4.37 µM | > 100 µM and 63.5 µM | 5.89 µM | > 100 µM and 60.1 µM | 5.93 µM | > 100 µM and 35.4 µM | 4.35 µM | > 100 µM | 10.7 µM | > 100 µM and 65.9 µM | 6.91 µM | > 100
15 | CN(C)CCCc1c2ccccc2nc2ccc(Cl)cc12 |  | 29.4 µM |  | 24.4 µM |  | 56.1 µM |  | 26.4 µM |  | 23.7 µM |  | 29.1 µM |  | 24.8 µM |  | 57.7 µM |  | 30 µM |  | 67.7
